Measurements reported in patent publication US20260183350A1, “ANTIBIOTIC-RESISTANT BACTERIA” (priority 2022, published 2026).

System: faecal microbiota
Test: Faecal batch culture with antibiotics promoting CRE colonisation: 1H-NMR of nutrients and metabolites
Assay type: cell-based, human
Settings: 11 healthy donors, antibiotic at faecal concentration, 24 hours anaerobic
Method: The inventors performed faecal culture experiments to measure the effects of eight broad-spectrum antibiotics on the faecal microbiota collected from 11 healthy human donors. Faecal culture experiments were performed under anaerobic conditions using a complex gut growth medium that was designed to mimic the nutrients found in the human distal gut (McDonald, J. A. et al. Evaluation of microbial community reproducibility, stability and composition in a human distal gut chemostat model. J. Microbiol. Methods 95, 167-174 (2013)). […] Moon, Y. S., Chung, K. C. & Gill, M. A. Pharmacokinetics of meropenem in animals, healthy volunteers, and patients. Clin Infect Dis 24, S249-S255 (1997). Kager, L., Brismar, B., Malmborg, A. S. & Nord, C. E. Imipenem concentrations in colorectal surgery and impact on the colonic microflora. Antimicrob Agents Chemother 33, 204-8 (1989). Pletz, M. et al. Ertapenem pharmacokinetics and impact on intestinal microflora, in comparison to those of ceftriaxone, after multiple dosing in male and female volunteers. Antimicrob Agents Chemother 48, 3765-72 (2004). Nord, C. E., Brismar, B., Kasholm-Tengve, B. & Tunevall, G. Effect of piperacillin/tazobactam treatment on human bowel microflora. J Antimicrob Chemother 31, 61-5 (1993). […] Antimicrob Agents Chemother 63, 2244 (2019). Pessôa de Menezes e Silva, C H. Elaboration and evaluation of a new screening medium for detection and presumptive identification of extended-spectrum beta-lactamase-producing organisms (ESBL). Braz J Microbiol 31, 271-274 (2000). Brismar, B., Edlund, C., Malmborg, A. S. & Nord, C. […] Antimicrob Agents Chemother 34, 481-3 (1990)). Cultures were incubated anaerobically at 37° C. for 24 hours. Samples were analysed by ^1H-NMR spectroscopy (for nutrient and metabolite profiling) and […] rRNA gene sequencing with 16S rRNA gene qPCR (for bacterial composition and biomass) (McDonald, J. A. K. et a/. Inhibiting Growth of Clostridioides difficile by Restoring Valerate, Produced by the Intestinal Microbiota. Gastroenterology 155, 1495-1507 (2018)).
Supernatants were prepared from faeces by vortexing 300 mg of faeces in 900 μl of HPLC-grade water for 10 minutes at 3000 rpm followed by centrifugation at 17,000×g for 10 minutes at 4° C. Supernatants were prepared from faecal culture samples by centrifugation at 17,000×g for 10 minutes at 4° C. Supernatants were frozen at −80° C. until they were ready for analysis.
^1H-NMR spectroscopy was performed as previously described (McDonald, J. A. K. et al. Inhibiting Growth of Clostridioides difficile by Restoring Valerate, Produced by the Intestinal Microbiota. Gastroenterology 155, 1495-1507 (2018)). Briefly, sample supernatants were randomized and defrosted at room temperature for 1 hour. Sample supernatants were then centrifuged for 10 min at 17 000×g and 4° C. The pellet was discarded and 400 μl of supernatant was added to 250 μl NMR buffer (28.85 g Na2HPO4, 5.25 g NaH2PO4, 1 mM TSP, 3 mM NaN3, deuterium oxide to 1 L, pH 7.4). 600 μl of sample was used to fill each 5 mm NMR tube to be loaded into the SampleJet system.
^1H-NMR spectroscopy was performed using the Bruker AVANCE III HD 800 MHz spectrometer (Bruker Bio-Spin, Rheinstetten, Germany). 1D spectra (a standard NOESYGPPR1D pulse sequence (RD-90°-t1-90°-tm-90°-ACQ)) as well as 2D spectra (standard 2D JRESGPPRQF pulse sequence) were acquired. A recycle delay of 4 seconds and mixing time of 100 ms was used. The 90° pulse length was approximately 10 μs and 32 scans were recorded.
NMR spectra were imported into MATLAB r2019b (The Mathworks, USA) using an in-house script. Spectra were aligned and the water (4.6-5 ppm) and TSP (−0.2-0.2 ppm) peaks were cut. Compounds were identified by comparison to spectral databases in Chenomx NMR Suite (Chenomx, Canada). Representative peaks were integrated for quantification of compounds.

Compound | Change in butyrate concentration in faecal cultures
C[C@@H](O)[C@H]1C(=O)N2C(C(=O)O)=C(S[C@@H]3CN[C@H](C(=O)Nc4cccc(C(=O)O)c4)C3)[C@H](C)[C@H]12 [ETP, ertapenem] | decreased
C[C@@H](O)[C@H]1C(=O)N2C(C(=O)O)=C(S[C@@H]3CN[C@H](C(=O)N(C)C)C3)[C@H](C)[C@H]12 [MEM, meropenem] | increased
imipenem/cilastatin [IPM] | increased
